Laboratory results taken from patent EP4420684A1, “DNA TOXIC DIMER COMPOUND AND CONJUGATE THEREOF” (Systimmune, Inc., priority 2022, dated 2023).

Legend:
N87 tumor cells = experiment: In vitro activity test (MTS, 5 days), growth inhibition of N87 cells; assay type: cell-based; conditions: 120 h
Experimental: The biosafety cabinet was turned on for UV light irradiation 30 min in advance, and subsequently ventilated for 3 minutes. The growth medium, assay medium, D-PBS and trypsin were preheated in a 37°C thermostatic water bath, after which the surface was sterilized with alcohol and placed in the biosafety cabinet. Cells with a confluence of ~80% (logarithmic growth phase) were selected and placed in a biosafety cabinet, old medium was aspirated off, rinsed with D-PBS, aspirated and discarded, digested with trypsin for 2-3 minutes, after which growth medium was added to terminate the trypsin, and centrifuged at 500 × g for 5 minutes. The centrifugation supernatant was aspirated off, and the cells were mixed with 4 mL of assay medium, and 100 uL of the cells were taken for counting (of which 50 uL of cytosol was taken out, and 50 uL of 0.4% cell solution was added to 50 µL of 0.4% Trypan Blue Stain and mix, count after mixing). Spread the plate according to the previously set cell number, 80 uL/well in 96-well plate, wells E11, F11, G11 only received 80 uL of detection medium, the wells on the edge received 200 uL of DPBS to seal the edge. […]

SK-BR-3 tumor cells = experiment: In vitro activity test (MTS, 5 days), growth inhibition of SK-BR-3 cells; assay type: cell-based; conditions: Homo sapiens, 120 h
Experimental: • Cells: derived from the Cell Bank of the Chinese Academy of Sciences; • Tumor cell culture medium: Gibco™; • Fetal Bovine Serum (FBS): BIOWEST™;
• Growth medium (with 10% FBS, Penicillin/streptomycin (100 U/mL); • Assay medium (with 1% FBS, Penicillin/streptomycin (100 U/mL);
The biosafety cabinet was turned on for UV light irradiation 30 min in advance, and subsequently ventilated for 3 minutes. The growth medium, assay medium, D-PBS and trypsin were preheated in a 37°C thermostatic water bath, after which the surface was sterilized with alcohol and placed in the biosafety cabinet. Cells with a confluence of ~80% (logarithmic growth phase) were selected and placed in a biosafety cabinet, old medium was aspirated off, rinsed with D-PBS, aspirated and discarded, digested with trypsin for 2-3 minutes, after which growth medium was added to terminate the trypsin, and centrifuged at 500 × g for 5 minutes. The centrifugation supernatant was aspirated off, and the cells were mixed with 4 mL of assay medium, and 100 uL of the cells were taken for counting (of which 50 uL of cytosol was taken out, and 50 uL of 0.4% cell solution was added to 50 µL of 0.4% Trypan Blue Stain and mix, count after mixing). Spread the plate according to the previously set cell number, 80 uL/well in 96-well plate, wells E11, F11, G11 only received 80 uL of detection medium, the wells on the edge received 200 uL of DPBS to seal the edge. After the cells are completely attached to the wall (usually at least 4 hours), the test samples were configured and diluted: 1.0 mL of 2.5 µM (5 ×Top Dose) test samples were configured with the assay medium and dispensed into the first column of the V-type 96-well plate, with 200 µL in each well; 180 µL of assay medium was added to the second through eighth columns, and 30 µL was added to the second column from the first column, and mixed up and down with a row gun for […]. The test medium was mixed up and down 10 times with a row gun, discard the gun tip, and the remaining test concentration points were operated sequentially to perform 7-fold gradient concentration dilution. […]
The MTS reagent was removed from the test samples after 5 days of action, thawed at room temperature and protected from light, vortexed and mixed thoroughly, and then 20 µL of Cell Titer One Solution Reagen MTS reagent was added along the side wall of the wells for every 100 µL of cell culture volume in a biosafety cabinet. […] After the end of the reaction, took out the 96-well plate, placed in the enzyme labeling instrument to detect the OD490 nm absorbance value, and performed the data recording, organization and storage.

Molecule `COc1cc2c(cc1OCC13CC(C(=O)N4C[C@@H](CCl)c5c4cc(O)c4cccc(C)c54)(C1)C3)N=C[C@@H]1CC(c3ccc(NC(=O)CO)cc3)=CN1C2=O` [Compound B1] has an IC50 (N87 tumor cells) of 5.03 nM and an IC50 (SK-BR-3 tumor cells) of 4.23 nM.

In the case of `COc1cc2c(cc1OCCCCC(=O)N1C[C@@H](CCl)c3c1cc(O)c1cccc(C)c31)N=C[C@@H]1Cc3ccc(NC(=O)CO)cc3N1C2=O` [Compound D1], the IC50 (N87 tumor cells) is reported as 12.3 nM and the IC50 (SK-BR-3 tumor cells) is reported as 10.3 nM.

With `COc1ccc(C2=CN3C(=O)c4cc(OC)c(OCC56CC(C(=O)N7C[C@@H](CCl)c8c7cc(O)c7cccc(C)c87)(C5)C6)cc4N=C[C@@H]3C2)cc1` [Compound A] the IC50 (SK-BR-3 tumor cells) was 0.52 nM.

For `COc1cc2c(cc1OCCCCC(=O)N1C[C@@H](CCl)c3c1cc(O)c1cccc(C)c31)N=C[C@@H]1CC(c3ccc(NC(=O)CO)cc3)=CN1C2=O` [Compound C1], the IC50 (N87 tumor cells) was 9.68 nM and the IC50 (SK-BR-3 tumor cells) was 8.67 nM.
